Reference: patent US10688093B2, “Methods, compositions, and uses of novel Fyn kinase inhibitors” (priority 2015, dated 2020)

Molecular target: full-length recombinant human FYN A (Homo sapiens (Human), UniProt P06241)
Experiment: ADP-Glo Kinase Assay of FYN kinase inhibition
Format: biochemical
Conditions: primary screen, initial compounds
How it was run: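 GST-tagged full-length FYN A (baculovirus, Sf9) at 3 pg preincubated 30 min RT with compound (10-point 3-fold series from 10 μM) in Tris pH 7.5/MgCl2 buffer. 12-mer tyrosine peptide plus 12.5 pmol ATP added, 90 min RT; ADP measured by ADP-Glo luminescence, IC50 from dose-response.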

Sequence of full-length recombinant human FYN A (P06241 whole entry): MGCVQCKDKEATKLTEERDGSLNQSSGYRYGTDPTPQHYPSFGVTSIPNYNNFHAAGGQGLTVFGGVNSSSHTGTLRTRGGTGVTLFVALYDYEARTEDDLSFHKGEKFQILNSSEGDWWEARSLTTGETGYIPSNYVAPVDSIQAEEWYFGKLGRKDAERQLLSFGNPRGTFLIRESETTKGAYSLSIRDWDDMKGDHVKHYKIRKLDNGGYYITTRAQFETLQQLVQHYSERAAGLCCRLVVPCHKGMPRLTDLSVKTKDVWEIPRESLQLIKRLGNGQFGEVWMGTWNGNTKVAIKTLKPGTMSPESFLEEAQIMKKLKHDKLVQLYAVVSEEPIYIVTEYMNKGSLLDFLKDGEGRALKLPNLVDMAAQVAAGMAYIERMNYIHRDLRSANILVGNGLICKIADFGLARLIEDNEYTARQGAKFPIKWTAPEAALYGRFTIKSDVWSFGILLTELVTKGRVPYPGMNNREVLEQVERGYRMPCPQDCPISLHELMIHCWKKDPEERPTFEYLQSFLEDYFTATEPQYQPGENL

| IC50 [µM] | SMILES |
| --- | --- |
| 12.1 | COc1cc(-c2cc(-c3ccoc3)cnc2N)cc(OC)c1OC [382_0087_0343, 5-(3-furyl)-3-(3,4,5-trimethoxy-phenyl)pyridin-2-amine] |
| 0.4 | COc1cc(-c2cc(-c3ccc(C(N)=O)cc3)cnc2N)cc(OC)c1OC [382_0087_0346, 4-[6-amino-5-(3,4,5-trimethoxy-phenyl)-3-pyridyl]benzamide] |
| 9.5 | COc1cccc(-c2cnc(N)c(-c3cc(OC)c(OC)c(OC)c3)c2)c1 [382_0087_4140, 5-(3-methoxyphenyl)-3-(3,4,5-trimethoxyphenyl) pyridin-2-amine] |
| 0.525 | COc1cc(-c2cc(-c3cccc(NS(C)(=O)=O)c3)cnc2N)cc(OC)c1OC [382_0087_6488, N-[3-[6-amino-5-(3,4,5-trimethoxy-phenyl)-3-pyridyl]phenyl] methane-sulfonamide] |
| 1.73 | COc1cc(-c2cc(-c3ccc(O)cc3)cnc2N)cc(OC)c1OC [382_0087_7249, 4-[6-amino-5-(3,4,5-trimethoxy-phenyl)-3-pyridyl]phenol] |
| 0.507 | COc1cc(-c2cc(-c3ccc(C(=O)NC4CC4)cc3)cnc2N)cc(OC)c1OC [382_0087_7489, 4-[6-amino-5-(3,4,5-trimethoxy-phenyl)-3-pyridyl]-N-cyclopropyl-benzamide] |
| 4.66 | CN(C)CCCOc1ccc(-c2cnc(N)c(-c3cccc(N(C)C)c3)c2)cn1 [382_0135_0002, 3-[3-(dimethylamino)phenyl]-5-[6-[3-(dimethyl-amino)propoxy]-3-pyridyl]pyridin-2-amine] |
| 7.11 | CN(C)c1cccc(-c2cc(-c3cccnc3)cnc2N)c1 [382_0135_0071, 3-[3-(dimethyl-amino)phenyl]-5-(3-pyridyl)pyridin-2-amine] |
| 5.05 | COc1ccc(-c2cnc(N)c(-c3cccc(N(C)C)c3)c2)cc1OC [382_0135_0079, 5-(3,4-dimethoxy-phenyl)-3-[3-(dimethylamino)phenyl]pyridin-2-amine] |
| 3.13 | COc1cc(-c2cnc(N)c(-c3cccc(N(C)C)c3)c2)cc(OC)c1OC [382_0135_0087, 3-[3-(dimethyl-amino)phenyl]-5-(3,4,5-trimethoxy-phenyl)pyridin-2-amine] |
| 3.57 | CN(C)c1cccc(-c2cc(-c3cccc(C(=O)NCCO)c3)cnc2N)c1 [382_0135_0192, 3-[6-amino-5-[3-(dimethylamino)phenyl]-3-pyridyl]-N-(2-hydroxyethyl) benzamide] |
| 4.44 | CN1CCN(C(=O)c2cccc(-c3cnc(N)c(-c4cccc(N(C)C)c4)c3)c2)CC1 [382_0135_0200, [3-[6-amino-5-[3-(dimethylamino)phenyl]-3-pyridyl]phenyl]-(4-methyl-piperazin-1-yl)methanone] |
| 2.7 | CN(C)c1cccc(-c2cc(-c3cccc(CO)c3)cnc2N)c1 [382_0135_0291, [3-[6-amino-5-[3-(dimethylamino)phenyl]-3-pyridyl]phenyl] methanol] |
| 2.11 | COc1cc(-c2cnc(N)c(-c3cccc(N(C)C)c3)c2)ccc1O [382_0135_0314, 4-[6-amino-5-[3-(dimethylamino)phenyl]-3-pyridyl]-2-methoxy-phenol] |
| 4.2 | Cc1cc(-c2cnc(N)c(-c3cccc(N(C)C)c3)c2)cc(C)c1O [382_0135_0315, 4-[6-amino-5-[3-(dimethylamino)phenyl]-3-pyridyl]-2,6-dimethyl-phenol] |
| 3.52 | CN(C)c1cccc(-c2cc(-c3cccc(C(N)=O)c3)cnc2N)c1 [382_0135_0347, 3-[6-amino-5-[3-(dimethylamino)phenyl]-3-pyridyl] benzamide] |
| 4.64 | Nc1ncc(-c2ccc(N3CCOCC3)cc2)cc1-c1cccc(O)c1 [382_0284_0001, 3-[2-amino-5-(4-morpholino-phenyl)-3-pyridyl]phenol] |
| 2 | COc1ccc(-c2cnc(N)c(-c3cccc(O)c3)c2)cc1OC [382_0284_0079, 3-[2-amino-5-(3,4-dimethoxy-phenyl)-3-pyridyl]phenol] |
| 1.02 | COc1cc(-c2cnc(N)c(-c3cccc(O)c3)c2)cc(OC)c1OC [382_0284_0087, 3-[2-amino-5-(3,4,5-trimethoxy-phenyl)-3-pyridyl]phenol] |
| 5.13 | COc1ccc(-c2cnc(N)c(-c3ccc(CO)cc3)c2)cc1OC [382_0285_0079, [4-[2-amino-5-(3,4-dimethoxy-phenyl)-3-pyridyl]phenyl] methanol] |
| 4.64 | Cc1cc(-c2cnc(N)c(-c3ccc(CO)cc3)c2)cc(C)c1O [382_0285_0315, 4-[6-amino-5-[4-(hydroxymethyl)phenyl]-3-pyridyl]-2,6-dimethyl-phenol] |
| 1.48 | COc1cc(-c2cc(-c3ccccc3)cnc2N)ccc1O [382_0314_0061, 4-(2-amino-5-phenyl-3-pyridyl)-2-methoxy-phenol] |
| 0.0806 | COc1cc(-c2cc(-c3cc(OC)c(OC)c(OC)c3)cnc2N)ccc1O [382_0314_0087, 4-[2-amino-5-(3,4,5-trimethoxy-phenyl)-3-pyridyl]-2-methoxy-phenol] |
| 11.3 | COc1cc(-c2cc(-c3ccc(F)c(Cl)c3)cnc2N)ccc1O [382_0314_0164, 4-[2-amino-5-(3-chloro-4-fluoro-phenyl)-3-pyridyl]-2-methoxy-phenol] |

| IC50 [µM] | SMILES |
| --- | --- |
| 0.349 | COc1cc(-c2cc(-c3ccc(S(C)(=O)=O)cc3)cnc2N)ccc1O [382_0314_0174, 4-[2-amino-5-(4-methylsulfonyl-phenyl)-3-pyridyl]-2-methoxy-phenol] |
| 3.51 | COc1cc(-c2cc(-c3cccc(Cl)c3)cnc2N)ccc1O [382_0314_0279, 4-[2-amino-5-(3-chlorophenyl)-3-pyridyl]-2-methoxy-phenol] |
| 4.16 | COc1ccc(-c2cnc(N)c(-c3ccc(O)c(OC)c3)c2)cc1 [382_0314_0280, 4-[2-amino-5-(4-methoxyphenyl)-3-pyridyl]-2-methoxy-phenol] |
| 2.03 | COc1cc(-c2cc(-c3cccc(F)c3)cnc2N)ccc1O [382_0314_0313, 4-[2-amino-5-(3-fluorophenyl)-3-pyridyl]-2-methoxy-phenol] |
| 0.526 | COc1cc(-c2cc(-c3cc(C)c(O)c(C)c3)cnc2N)ccc1O [382_0314_0315, 4-[6-amino-5-(4-hydroxy-3-methoxy-phenyl)-3-pyridyl]-2,6-dimethyl-phenol] |
| 3.24 | COc1cc(-c2cc(-c3ccc(F)cc3)cnc2N)ccc1O [382_0314_0339, 4-[2-amino-5-(4-fluorophenyl)-3-pyridyl]-2-methoxy-phenol] |
| 4.34 | COc1cc(-c2cc(-c3ccc(C)cc3)cnc2N)ccc1O [382_0314_4139, 4-[2-amino-5-(p-tolyl)-3-pyridyl]-2-methoxy-phenol] |
| 1.2 | COc1cccc(-c2cnc(N)c(-c3ccc(O)c(OC)c3)c2)c1 [382_0314_4140, 4-[2-amino-5-(3-methoxyphenyl)-3-pyridyl]-2-methoxy-phenol] |
| 1.55 | COCOc1ccc(-c2cc(-c3cccc(NC(C)=O)c3)cnc2N)cc1 [382_0341_0081] |
| 1.9 | COCOc1ccc(-c2cc(-c3cc(OC)c(OC)c(OC)c3)cnc2N)cc1 [382_0341_0087, 3-[4-(methoxymethoxy)phenyl]-5-(3,4,5-trimethoxy-phenyl)pyridin-2-amine] |
| 4.62 | COCOc1ccc(-c2cc(-c3cccc(CO)c3)cnc2N)cc1 [382_0341_0291, [3-[6-amino-5-[4-(methoxymethoxy)phenyl]-3-pyridyl]phenyl] methanol] |
| 3.42 | COCOc1ccc(-c2cc(-c3ccc(C(N)=O)cc3)cnc2N)cc1 [382_0341_0346, 4-[6-amino-5-[4-(methoxy-methoxy)phenyl]-3-pyridyl] benzamide] |
| 3.02 | COCOc1ccc(-c2cc(-c3cccc(C(N)=O)c3)cnc2N)cc1 [382_0341_0347, 3-[6-amino-5-[4-(methoxymethoxy)phenyl]-3-pyridyl]benzamide] |
| 0.838 | CC(=O)Nc1cccc(-c2cnc(N)c(-c3ccc(O)cc3)c2)c1 [382_7249_0081, N-[3-[6-amino-5-(4-hydroxyphenyl)-3-pyridyl]phenyl] acetamide] |
| 0.209 | COc1cc(-c2cnc(N)c(-c3ccc(O)cc3)c2)cc(OC)c1OC [382_7249_0087, 4-[2-amino-5-(3,4,5-trimethoxy-phenyl)-3-pyridyl]phenol] |
| 2.19 | CN(C)c1cccc(-c2cnc(N)c(-c3ccc(O)cc3)c2)c1 [382_7249_0135, 4-[2-amino-5-[3-(dimethylamino)phenyl]-3-pyridyl]phenol] |
| 1.25 | CS(=O)(=O)c1ccc(-c2cnc(N)c(-c3ccc(O)cc3)c2)cc1 [382_7249_0174, 4-[2-amino-5-(4-methylsulfonyl-phenyl)-3-pyridyl]phenol] |
| 3.49 | COc1cccc(-c2cnc(N)c(-c3ccc(O)cc3)c2)c1 [382_7249_4140, 4-[2-amino-5-(3-methoxyphenyl)-3-pyridyl]phenol] |
| 6.91 | CN(C)CCNC(=O)c1ccc(-c2cn3c(-c4ccncc4)cnc3cn2)cc1 [388_0069_0327, N-(2-dimethylamino-ethyl)-4-[3-(4-pyridyl)imidazo [1,2-a]pyrazin-6-yl]benzamide] |
| 3.95 | c1ccc(-c2cn3c(-c4ccsc4)cnc3cn2)cc1 [388_0074_0061, 6-phenyl-3-(3-thienyl)imidazo [1,2-a]pyrazine] |
| 4.34 | c1cncc(-c2cn3c(-c4ccsc4)cnc3cn2)c1 [388_0074_0071, 6-(3-pyridyl)-3-(3-thienyl)imidazo [1,2-a]pyrazine] |
| 2.35 | OCc1ccc(-c2cn3c(-c4ccsc4)cnc3cn2)cc1 [388_0074_0285, [4-[3-(3-thienyl)imidazo [1,2-a]pyrazin-6-yl]phenyl] methanol] |
| 6.38 | Cn1cc(-c2cn3c(-c4ccsc4)cnc3cn2)cn1 [388_0074_8400, 6-(1-methylpyrazol-4-yl)-3-(3-thienyl)imidazo [1,2-a]pyrazine] |
| 0.637 | CC(C)N1CCN(c2ccc(-c3cn4c(-c5ccc(O)cc5)cnc4cn3)cc2)CC1 [388_0080_0182, 4-[6-[4-(4-isopropyl-piperazin-1-yl)phenyl]imidazo [1,2-a]pyrazin-3-yl]phenol] |
